A word on the inhibition: it is the change of the read-out against control, counted positive when it falls. Read a low inhibition as a weak effect. Broadly, the IC50 is the midpoint of a concentration-inhibition curve.

The source of these data is PMC5064022, “KCNE1 induces fenestration in the Kv7.1/KCNE1 channel complex that allows for highly specific pharmacological targeting” (Nature Communications, 2016).

Common to all, as to format: cell-based
For assay [1], the target named is T1, Kv7.1/KCNE1 (Homo sapiens, UniProt P15382+P51787). Nature of the assay: Two electrode voltage clamp of Kv7.1/KCNE1 currents in Xenopus oocytes. The settings on record: 10 µM; percent change in current amplitude at end of pulse to +40 mV. Here is the method:
Template cDNAs (wildtype or mutant human Kv7.1 in pSGEM, wildtype human KCNE1 in pSP64) were linearized with a suitable restriction enzyme (Nhe I/pSGEM, Eco RI/pSP64). cRNA was synthesized from 1 μg linearized cDNA by in vitro transcription (mMessage mMachine T7 or SP6 kit, Ambion, Life Technologies Darmstadt, Germany). cRNA concentrations were determined by photometry (Nanodrop, Peqlab, Erlangen, Germany) and cRNA quality was checked by agarose gel electrophoresis.
Oocytes were commercially obtained from EcoCyte Bioscience (Castrop-Rauxel, Germany). Injection of stage 4 or 5 oocytes was performed using a nanoliter injector 2000 (WPI, Berlin, Germany). For standard pharmacological measurements, each oocyte was injected with 5 ng Kv7.1 cRNA alone or with 1 ng KCNE1 cRNA. To investigate the influence of KCNE1 on AC-1 sensitivity of Kv7.1 tetramers, 5 ng Kv7.1 cRNA was injected with different amounts of KCNE1 cRNA (0 ng, 0.005 ng, 0.05 ng, 0.5 ng and 5 ng). Injected oocytes were maintained in an incubator at 17 °C for 4–5 days in standard Barth solution (EcoCyte Bioscience, Castrop-Rauxel, Germany) supplemented with 90 μg ml^−1 theophylline, 63 μg ml^−1 penicillin, 40 μg ml^−1 streptomycin, and 100 μg ml^−1 gentamycin until used for two electrode voltage clamp (TEVC) measurements.
TEVC measurements were performed using a TurboTec-10CD amplifier (npi Electronic, Tamm, Germany) and an ITC-16 AD/DA-interface (Instrutech Corporation, Port Washington, New York, USA). Pulse and PulseFit software (HEKA, Lambrecht/Pfalz, Germany) was used for data acquisition and analysis. During TEVC recordings, oocytes were constantly perfused with control solution (ND96, containing in mM: 96 NaCl, 4 KCl, 1.8 CaCl2, 1 MgCl2, 5 mM HEPES, pH 7.6 supplemented 0.1–0.3% DMSO). AC solutions were freshly prepared in ND96 from a 10 mM DMSO stock solution. Glass capillaries were pulled to a fine point to produce current and voltage electrodes that were back-filled with 3 M KCl. When filled with this solution, electrode resistances ranged from 0.5–1.5 MΩ. Different voltage pulse protocols were used as follows: (1) To study the inhibitory effect of different AC derivatives, Kv7.1/KCNE1 currents were elicited by repetitive 7 s pulses to +40 mV applied every 30 s from a holding potential of −80 mV. (2) To analyse the voltage dependence of channel activation, currents were elicited by 10 s pulses to test voltages between −100 and +60 mV, applied in 20 mV increments from a holding potential of −80 mV. Tail currents were recorded at −120 mV. For control we always expressed KCNE1 alone along mutant channels and mutant currents were only taken into account when it reached at least 2.5- to 3-fold the size of the background Xenopus-Kv7.1/hKCNE1 currents.
Electrophysiological data were analysed using PulseFit software (HEKA, Lambrecht/Pfalz, Germany) and GraphPad Prism (GraphPad Software, Inc., La Jolla, California, USA). Channel inhibition was determined as reduction of whole cell current amplitude at the end of a 7 s test pulse to +40 mV. The concentration of compound that caused half-maximal inhibition (IC50) were determined using the Hill equation: Idrug/Imax=1/(1+[C/IC50]^H), where Idrug is the current amplitude in the presence of the drug, Imax is the current amplitude before drug application, C is the drug concentration and H is the Hill coefficient.
(In general: In two-electrode clamp one electrode senses voltage and the other passes current.)

Assay [2] concerns the target T1, Kv7.1/KCNE1. Nature of the assay: Current inhibition in CHO cells stably expressing Kv7.1/KCNE1. Here is the method:
Figure 5 PAL-based approach to identify AC binding site. (a) Schematic view of the PAL-based approach to investigate the binding site of AC-1. (b) Concentration-response curve for AC-10, the UV-active diazirine derivate of AC-1. The inhibitory effect of AC-10 was determined in CHO cells stably expressing Kv7.1/KCNE1. Inhibition was determined as percent change in current amplitude at the end of the depolarizing test pulse to +40 mV (±s.e.m.). (c) A new cDNA-construct (Kv7.1myc-2A-KCNE1myc in pXOOM) allows for functional expression of myc-tagged Kv7.1 and KCNE1 in HEK293T cells. In this construct, cDNAs of Kv7.1 and KCNE1 are linked via the T2A peptide sequence, which mediates co-translational protein cleavage. (d) Western blot analysis of affinity purified Kv7.1 and KCNE1 proteins. Kv7.1myc was purified using myc-agarose beads KCNE1 was purified using anti-KCNE1 coupled protein-A-sepharose beads (right). In both western blots, ‘+' indicates transfected cells, ‘−' indicates non-transfected control cells. Antibodies used for affinity purification are detected in ‘+' and ‘−'. […] It should be noted, that KCNE1, as a myc-tagged protein, should also be purified using the myc-agarose beads. […] Thus, KCNE1 expression was instead proven using the KCNE1 antibody. (e) Functional expression of Kv7.1myc-2A-KCNE1myc in HEK293T cells (scale bars indicate 1 nA, 1 s).

For a further assay, the system named is homomeric Kv7.1 channels. The experiment in a line: AC-10 on homomeric Kv7.1 channels.
The subject of another assay is Kv7.1/KCNE1 channels. Nature of the assay: Reversibility of AC-10 current inhibition by washout, with or without UV irradiation.

Molecules are shown by their SMILES.

Regarding `Cc1cc(Cl)ccc1OC(C)(C)C(=O)NC1C2CC3CC1CC(NS(C)(=O)=O)(C3)C2` (stereo not shown) [AC-2], testing at 10 µM against Kv7.1/KCNE1 [1] gave an inhibition of 86.8 ± 3%.

Take `CC(C)(Oc1cccc(C(F)(F)F)c1)C(=O)NC1C2CC3CC1CC(NS(C)(=O)=O)(C3)C2` (stereo not shown) [AC-3]: the inhibition at 10 µM at Kv7.1/KCNE1 [1] was 73.7 ± 2.9%. Same read-out and setting: in the case of `Cc1cc(Cl)ccc1OC(C)(C)C(=O)NC1[C@@H]2CC3C[C@H]1CC(N)(C3)C2` (stereo partly shown) [AC-4, N-[(1 R,3 S)-5-amino-2-adamantyl]-2-(4-chloro-2-methyl-phenoxy)-2-methyl-propanamide] it was 4.2 ± 6.1%; in that of `Cc1cc(Cl)ccc1OC(C)(C)C(=O)NC1C2CC3CC1CC(O)(C3)C2` (stereo not shown) [AC-5], 40.9 ± 1.4%; in that of `Cc1cc(Cl)ccc1OC(C)(C)C(=O)NC1C2CC3CC1CC(C(=O)O)(C3)C2` (stereo not shown) [AC-6], 64.6 ± 6.6%.

On to `Cc1cc(Cl)ccc1OC(C)(C)C(=O)NC1C2CC3CC1CC(NS(=O)(=O)N(C)C)(C3)C2` (stereo not shown) [AC-7], for which testing at 10 µM against Kv7.1/KCNE1 [1] gave an inhibition of 38 ± 4.4%. On the same count and under the same terms, as for `CCOC(=O)NC12CC3CC(C1)C(NC(=O)C(C)(C)Oc1ccc(Cl)cc1C)C(C3)C2` (stereo not shown) [AC-8], the figure is 74.5 ± 6.2%; as for `Cc1cc(Cl)ccc1OC(C)(C)C(=O)NC1C2CC3CC1CC(NC(=O)CC(C)C)(C3)C2` (stereo not shown) [AC-9], 78.6 ± 3.3%.

`Cc1cc(Cl)ccc1OC(C)(C)C(=O)NC1[C@@H]2CC3C[C@H]1CC(NC(=O)CCC1(C)N=N1)(C3)C2` (stereo partly shown) [AC-10, 2-(4-chloro-2-methyl-phenoxy)-2-methyl-N-[(1 R,3 S)-5-[3-(3-methyldiazirin-3-yl)propanoylamino]-2-adamantyl]propanamide] returned a Hill-coeff. at Kv7.1/KCNE1 [2] of 1.7. The same molecule came in with an IC50 at Kv7.1/KCNE1 [2] (+40 mV) of 16 nM. The “inhibition of homomeric Kv7.1 channels” value in the assay on homomeric Kv7.1 channels is reported as “did not inhibit”. Moreover, the “inhibition after 38 min washout” value is recorded as 75% with Kv7.1/KCNE1 channels (after UV irradiation) and 40% with Kv7.1/KCNE1 channels (non UV-activated).
